Results on one compound are retold here after patent US20040258754A1, “Compositions for oral administration of camptothecin and its analogs” (priority 2003, published 2004).

Values after ≈ are worked out from the molar mass of the structure shown. Like-named read-outs stand apart in the source and are kept apart here.

Data set [1] can be described thus: Plasma pharmacokinetics of topotecan upon i.v. administration. The format is in vivo. The note with it: normal rats, dose of 15 mg/mL. The protocol:
About 28 mg of topotecan were weighed and dissolved in 7 mL of isotonic solution. Topotecan was i.v. administered in normal rats at a dose of […].
(§1) After various time intervals (15, 30 min, 1, 3, 6, and 10 hrs) post-injection, the blood samples were collected.
The blood samples were collected from the jugular vein with the tube heparinized and kept immediately in ice for 5 to 10 min. Blood was immediately centrifuged, and plasma was separated. The plasma samples were immediately frozen in dry ice and stored at −80° C. until further use.
The aliquots (100 μL) of plasma samples were extracted with 400 μL of cold methanol. The supernatant was separated by centrifugation at 10000 RPM for 10 minutes and kept at −80° C. before HPLC analysis. The HPLC conditions were the following:
(§2) C18 reversed phase column 250×4.6 mm, Phenomenex C18 (2) Luna, 5 μm, column temperature 40° C., flow rate 1 mL/min, injection volume 20 μL, fluorescence detection at wavelengths λexcitation=381 nm, λemission=525 nm, mobile phase 94% of 2% triethylamine acetate pH 5.5/6% acetonitrile, run time 7 min
The topotecan lactone and topotecan carboxilate concentrations were calculated from the area under the peak (AUP) by using a calibration curve. The areas under the curves (AUC) were calculated by trapezoidal rule.

Data set [2] is described as follows: Stability of topotecan lactone in Pluronic P85 formulation (HPLC). The format is physicochemical. As to conditions: 37° C., 0.3 mg/mL drug in PBS. The protocol:
The formulation was prepared by mixing the stock solution containing 6 mg/mL of topotecan in 0.1% aqueous acetic acid with the 2.05% P85 solutions in PBS 1:20 (v/v), to obtain final compositions containing 0.3 mg/mL drug in 1% P85. The control formulation was prepared by simple dilution of topotecan stock solution with PBS 1:20 (v/v). The initial time of incubation (O hour) is the time of mixing of the respective stock solutions. The samples were incubated at 37° C. in thermostat. After various time intervals (1, 2, 3, 6, and 10 hrs) […], a sample of formulation was taken, diluted 1000 times with the HPLC mobile phase, and injected into HPLC. The HPLC conditions were following:
as §2

Data set [3] can be described thus: Oral administration of topotecan in capsules (control, microgel, microgel + L92). The format is in vivo, rats. The protocol:
(§3) About 30 mg of topotecan were weighed and mixed with 100 mg of the microgel. The mixture was dissolved in 5 mL of 70% ethanol and incubated for 16 hours at room temperature. Then, the half volume of solvent was evaporated in a stream of nitrogen. About 10 mL of 3% acetic acid were added to the mixture. The final mixture was lyophilized until dryness and loaded into the gelatin capsules.
About 30 mg of topotecan were weighed and loaded in gelatin capsules (3.75 mg/capsule).
The control and formulated topotecan in capsules were orally administered in normal rats at the dose of 15 mg/kg. The blood sample collection, extraction and HPLC analysis were the same as described in example 8.
as §3, with “microgel EGDMA and 30 mg of L92.” for “the microgel.”, “capsules. The topotecan formulation in capsules was orally administered in normal rats at the dose of 15 mg/kg. The blood sample collection, the extraction and HPLC analysis procedures were the same as in example 8.” for “capsules.”

Data set [4] can be described thus: Partitioning of topotecan into Pluronic F127 micelles (fluorescence). The format is physicochemical. As to conditions: Pluronic F127 micelles vs aqueous phase, carrier 0.003% to 10%, topotecan 0.010 mM, 2 hrs at 37° C. The source says:
Partitioning coefficient P describes the tendency of molecules of topotecan to stay inside micelles formed by the carrier: P=[x]m/[x]w, where [x]m is the actual concentration of topotecan inside micelles, [x]w is the actual concentration of topotecan in aqueous phase. The carrier investigated in this example is pluronic F127 (BASF). Partitioning coefficient was estimated using the fluorescence dependence on the concentration of the carrier (Kabanov A. et al. (1995), Macromolecules 28, 2303-2314), by fitting the measured fluorescence of topotecan to the equation:
(Imax−I0)/(−I0)−1=1/(θP)−1/P
θ=0.01v([carrier]−CMCcarrier), volume portion of the micellar phase
CMCcarrier=0.02%—critical micelle concentration for Pluronic 127
v—partial specific volume of micelles, approximately v=0.8
[…]. The plate was dried in vacuum. Solutions of the carrier were applied to wells, 300 microliter to each well. The concentration of carrier in solutions varied from 0.003% to 10%. The final concentration of topotecan was 0.010 mM. The plate was incubated 2 hrs at 37° C., and the fluorescence of the solution (excitation 360 nm, emission 530 nm) was measured using plate reader FL600 (BioTek).

Data set [5] is described as follows: Solubility of topotecan in formulations with Pluronic P85. The class given is physicochemical. As to conditions: thermodynamic from solid, read-out: Topotecan concentration (solubility). The protocol:
Calibration. Fluorescence of 0.300 mL samples of topotecan solutions in methanol containing between 0.00006 and 0.001 mg/mL, in triplicates on Helma Quarz plate, was measured using Bio-Tek FL600 fluorescence plate reader with excitation filter wavelength/bandwidth 360/40 nm and emission filter 530/25 nm, sensitivity 70. The average fluorescence was fitted to a linear equation and gave:
where C=topotecan concentration [mg/mL].
Solubility. 1 mg topotecan samples, in triplicates, and 1 mL of the respective buffer or carrier solution, were incubated at room temperature with shaking for 1 hour. The samples were then filtered through Acrodisc CR, PTFE Syringe filter, 4 mm diameter, 0.45 μm pore size Gelman part No. 4472. The filtrate was diluted 100 times with methanol, and the final concentration of topotecan was determined by fluorescence measurement using the above-described calibration.

The nature of data set [6]: Oral bioavailability of Pluronic P85 formulated and unformulated topotecan (gavage). The format is in vivo. The note with it: normal rats, oral gavage of solution, 15 mg/kg, plasma. The protocol:
About 15 mg of topotecan were weighed and dissolved in 5 mL of tap water for control, and about 15 mg of topotecan were dissolved in 5 mL of 1% P85 solution in tap water for formulation;
Both topotecan dosing solutions were orally administered by gavage in normal rats at a dose of 15 mg/kg. Three animals were used per each group.
as §1
The rats were anesthetized by general inhalation of Isoflurane (Bimeta-MTC, Animal Health Inc. Cambridge, ON, Canada).
The plasma sample collection, extraction and HPLC analysis were carried out with the same matter as is described in example 8.
The topotecan lactone and topotecan carboxylate concentrations were calculated from the area under the peak (AUP) by using a calibration curve. The areas under the curves (AUC) were calculated by trapezoidal rule.

Setting [7] is: normal rats, oral gelatin capsules, 15 mg/kg, plasma.

By Cmax is commonly meant the maximum level reached in the sampled fluid or tissue. As for `CC[C@@]1(O)C(=O)OCc2c1cc1n(c2=O)Cc2cc3c(CN(C)C)c(O)ccc3nc2-1` [Topotecan, topotecan], the “Ratio AUC0-10 h Lac/Car” value came out at 0.3 in data set [1], 0.6 in data set [3] (setting [7]) and 1.2 in data set [6]. The “Ratio Cmax Lac/Car” value in data set [1] turned out to be 0.4; in data set [3] (setting [7]), 0.8; in data set [6], 1.2. The AUC(0-t) in data set [1] (rat, iv, read-out: AUC0-10 h, topotecan Lactone) is 454 ng·h/mL; in data set [3] (rat, normal rats, oral gelatin capsules, 15 mg/kg, plasma, read-out: AUC0-10 h, topotecan Lactone), 52.8 ng·h/mL; in data set [6] (rat, read-out: AUC0-10 h, topotecan Lactone), 80.5 ng·h/mL. In addition, the Cmax in data set [1] (rat, iv, read-out: Cmax, topotecan Lactone) is 321 ng/mL; in data set [3] (rat, normal rats, oral gelatin capsules, 15 mg/kg, plasma, read-out: Cmax, topotecan Lactone) it was 9.8 ng/mL; in data set [6] (rat, read-out: Cmax, topotecan Lactone), 20.3 ng/mL. For the same compound, the topotecan lactone stability in data set [2] (0 hour) is reported as 100.0 % of 0 h; in data set [2] (1 hour), 76.0 % of 0 h; in data set [2] (2 hours), 56.4 % of 0 h; in data set [2] (3 hours), 49.7 % of 0 h; in data set [2] (6 hours), 45.9 % of 0 h; in data set [2] (10 hours), 44.8 % of 0 h. Moreover, the “AUC Ratio Oral Vs I.V.” value in data set [3] (Lac/Car AUC ratio, oral capsules 15 mg/kg vs i.v., rats) is recorded as 2.0. Moreover, the “Cmax Ratio Oral Vs I.V.” value in data set [3] (Lac/Car Cmax ratio, oral capsules 15 mg/kg vs i.v., rats) is given as 2.0. The “partitioning coefficient P=[x]m/[x]w” value in data set [4] is “about 1”. Besides, the solubility at 1 h in data set [5] (1% Pluronic P85 in PBS, aqueous with cosolvent or surfactant or cyclodextrin, P85 1% in PBS pH 7.2, room temperature) was 95 ± 5 µg/mL (≈ 225 µM); in data set [5] (3% Pluronic P85 in PBS, aqueous with cosolvent or surfactant or cyclodextrin, P85 3% in PBS pH 7.2, room temperature) it was 105 ± 5 µg/mL (≈ 249 µM); in data set [5] (aqueous buffer, PBS pH 7.2, room temperature), 62 ± 5 µg/mL (≈ 147 µM).
